Assay results as given in the NIST ThermoML archive (doi:10.1021/je020125e).
± gives the expanded uncertainty stated by the source.

Details: 101.33 kPa, Liquid, Hot wire method

CC(C)CC(C)C [2,4-dimethylpentane]
Details | thermal conductivity [W/m/K] | thermal diffusivity [m2/s]
256.59 K | 0.1138 ± 0.0011 | –
256.99 K | 0.1135 ± 0.0011 | –
257.3 K | 0.1133 ± 0.0011 | –
257.56 K | – | 7.9e-08 ± 1.6e-09
258.58 K | – | 7.84e-08 ± 1.6e-09
259.37 K | – | 7.76e-08 ± 1.6e-09
276.3 K | 0.1082 ± 0.0011 | –
276.69 K | 0.1079 ± 0.0011 | –
277.04 K | 0.1077 ± 0.0011 | –
277.29 K | – | 7.41e-08 ± 1.5e-09
278.27 K | – | 7.29e-08 ± 1.5e-09
279.16 K | – | 7.28e-08 ± 1.5e-09
296.19 K | 0.1025 ± 0.001 | –
296.63 K | 0.1022 ± 0.001 | –
296.97 K | 0.102 ± 0.001 | –
297.18 K | – | 6.9e-08 ± 1.4e-09
298.25 K | – | 6.83e-08 ± 1.4e-09
299.08 K | – | 6.77e-08 ± 1.4e-09
316.55 K | 0.09692 ± 0.00097 | –
317.01 K | 0.09668 ± 0.00097 | –
317.37 K | 0.09645 ± 0.00097 | –
317.55 K | – | 6.43e-08 ± 1.3e-09
318.67 K | – | 6.39e-08 ± 1.3e-09
319.53 K | – | 6.32e-08 ± 1.3e-09
333.96 K | 0.0924 ± 0.00093 | –
334.43 K | 0.09213 ± 0.00092 | –
334.81 K | 0.09197 ± 0.00092 | –
334.93 K | – | 5.99e-08 ± 1.2e-09
336.06 K | – | 5.98e-08 ± 1.2e-09
336.97 K | – | 5.96e-08 ± 1.2e-09

CCC(C)CC [3-methylpentane]
Details | thermal conductivity [W/m/K] | thermal diffusivity [m2/s]
256.68 K | 0.1196 ± 0.00097 | –
257 K | 0.1195 ± 0.00097 | –
257.43 K | 0.1193 ± 0.00097 | –
257.89 K | – | 8.31e-08 ± 1.6e-09
258.67 K | – | 8.27e-08 ± 1.6e-09
259.75 K | – | 8.22e-08 ± 1.6e-09
276.71 K | 0.1129 ± 0.00092 | –
277.02 K | 0.1128 ± 0.00092 | –
277.46 K | 0.1126 ± 0.00092 | –
277.98 K | – | 7.74e-08 ± 1.5e-09
278.74 K | – | 7.71e-08 ± 1.5e-09
279.82 K | – | 7.67e-08 ± 1.5e-09
296.39 K | 0.1066 ± 0.00087 | –
296.74 K | 0.1065 ± 0.00087 | –
297.2 K | 0.1063 ± 0.00087 | –
297.69 K | – | 7.21e-08 ± 1.4e-09
298.55 K | – | 7.2e-08 ± 1.4e-09
299.63 K | – | 7.16e-08 ± 1.4e-09
314.22 K | 0.1013 ± 0.00084 | –
314.59 K | 0.1012 ± 0.00083 | –
315.08 K | 0.101 ± 0.00083 | –
315.57 K | – | 6.8e-08 ± 1.3e-09
316.44 K | – | 6.8e-08 ± 1.3e-09
317.58 K | – | 6.75e-08 ± 1.3e-09
328.36 K | 0.09736 ± 0.00081 | –
328.75 K | 0.09723 ± 0.0008 | –
329.26 K | 0.09705 ± 0.0008 | –
329.73 K | – | 6.51e-08 ± 1.3e-09
330.64 K | – | 6.49e-08 ± 1.3e-09
331.82 K | – | 6.44e-08 ± 1.3e-09

CC(C)CC(C)(C)C [2,2,4-trimethylpentane]
Details | thermal conductivity [W/m/K] | thermal diffusivity [m2/s]
259.11 K | 0.1042 ± 0.00073 | –
259.32 K | 0.1041 ± 0.00073 | –
259.52 K | 0.104 ± 0.00073 | –
259.89 K | – | 7.3e-08 ± 1.4e-09
260.43 K | – | 7.32e-08 ± 1.4e-09
260.92 K | – | 7.33e-08 ± 1.4e-09
277.52 K | 0.09971 ± 0.0007 | –
277.74 K | 0.09966 ± 0.0007 | –
277.93 K | 0.09958 ± 0.0007 | –
278.29 K | – | 6.86e-08 ± 1.3e-09
278.84 K | – | 6.88e-08 ± 1.3e-09
279.31 K | – | 6.87e-08 ± 1.3e-09
295.67 K | 0.09516 ± 0.00067 | –
295.9 K | 0.09509 ± 0.00067 | –
296.1 K | 0.09502 ± 0.00067 | –
296.41 K | – | 6.37e-08 ± 1.2e-09
296.96 K | – | 6.41e-08 ± 1.2e-09
297.45 K | – | 6.42e-08 ± 1.2e-09
313.79 K | 0.09108 ± 0.00065 | –
314.02 K | 0.091 ± 0.00065 | –
314.22 K | 0.09093 ± 0.00065 | –
314.56 K | – | 6.07e-08 ± 1.1e-09
315.1 K | – | 6.07e-08 ± 1.1e-09
315.57 K | – | 6.07e-08 ± 1.1e-09
327.69 K | 0.08786 ± 0.00063 | –
327.93 K | 0.0878 ± 0.00063 | –
328.14 K | 0.08771 ± 0.00063 | –
328.47 K | – | 5.82e-08 ± 1.1e-09
329.04 K | – | 5.83e-08 ± 1.1e-09
329.52 K | – | 5.81e-08 ± 1.1e-09
